Laboratory results: US20250145948A1, “METHOD FOR ASSESSING DIFFERENTIATION POTENTIAL OF CELLS IN CULTURE BROTH IN DIFFERENTIATION OF PLURIPOTENT STEM CELLS INTO NEURAL CELLS OF MIDBRAIN FLOOR PLATE REGION” (SUMITOMO PHARMA CO., LTD., priority 2022, published 2025)

Legend:
iPS cell line (1231A3) [1] = assay: Concentration analysis of NT-3 in culture supernatant (Bioplex); format: cell-based, human; conditions: cell group A1 (SAG 300 nM pretreatment)
Experimental: (§1) An iPS cell line (formal name: 1231A3) as a line for research was used and cultured in a medium having composition given below. The medium was supplemented (with pretreatment) with SAG (N-Methyl-N′-(3-pyridinylbenzyl)-N′-(3-chlorobenzo[b]thiophene-2-carbonyl)-1,4-diaminocyclohexane, final concentration: 300 nM) for 1 day from 1 day before the start of differentiation culture (Day −1) to the start day of differentiation (Day 0) to establish a cell group having high induction efficiency (cell group A1). An untreated cell group (cell group A2) was also established for comparison by cell culture under the same conditions as in the cell group A1 except that the medium was not supplemented with SAG.
(§2) The pluripotent stem cells in each of six types of cell groups provided in the culture experiments A, B, and C were induced to differentiate into neural cells of the midbrain floor plate region in accordance with a predetermined protocol. […] The ratio of Corin-positive cells in each cell group was measured using a cell sorter (BD FACSJazz, BD Accuri or Furukawa PERFLOW Sort) on 12 days from the start of differentiation. […]

iPS cell line (1231A3) [2] = assay: Ratio of Corin-positive cells after induction of differentiation into neural cells of the midbrain floor plate region (cell sorter); format: cell-based, human; conditions: cell group A1: pretreatment with SAG 300 nM from Day -1 to Day 0; culture day 12 for the induction of differentiation
Experimental: as §1
As for the medium in the culture experiment A, AK03N basal medium manufactured by Ajinomoto Co., Inc. was used before the start of differentiation, and GMEM containing 8% KSR was used as a basal medium at and after the start of differentiation (Day 0).
as §2

## CNC1CCC(N(Cc2cccc(-c3ccncc3)c2)C(=O)c2sc3ccccc3c2Cl)CC1 (stereo not drawn) [SAG, N-Methyl-N′-(3-pyridinylbenzyl)-N′-(3-chlorobenzo[b]thiophene-2-carbonyl)-1,4-diaminocyclohexane]
iPS cell line (1231A3) [1]; sample collected 3 days after the start of differentiation
  NT-3 in culture supernatant: specifically increased
iPS cell line (1231A3) [1]; samples collected 1 day and 5 days after the start of differentiation
  NT-3 in culture supernatant: not detected
iPS cell line (1231A3) [2]
  ratio of Corin-positive cells: 90%
